SMILES strings stand for the structures.

This series can be described thus: Human HepG2 cell viability assay in 384 well format. It counts as toxicity, cell-based. The arrangement: dose 125 nL, time 70.5 hour; cytotoxicity at 70.5 h: concentration not given beside the values. The note with it: HepG2 cells, read-out: Inhibition.
Turning to `CN1CC[C@]2(CN(S(C)(=O)=O)C[C@H]2c2ccccc2)C1=O`, the cytotoxicity at 70.5 h came to 3.8%.

In the case of `CC(=O)N1CC[C@H]2OCC[C@@]2(C(=O)NCc2cnc(C)cn2)C1`, the cytotoxicity at 70.5 h was -5.25%. The same measure for `CC(=O)N1C[C@@H]2CN(S(=O)(=O)C3CC3)CCO[C@@H]2C1`: -1.33%. The same measure for `CCOC[C@@]12CCC[C@@H]1CN(C(=O)c1ccc(OC)cc1)C2`: 4.26%; for `CNC(=O)C1Cn2ccnc2C2(CCN(C(=O)NC3CCCC3)CC2)O1` (configuration not stated): -9.83%; for `CCn1ncc2c1C(COC)N(C(=O)Cc1cccs1)CC2` (configuration not stated): -0.61%. As for `Cc1cnc(CNC(=O)[C@@]23CCO[C@@H]2CCN(c2ncccn2)C3)cn1`, the figure is -12.7%; as for `CCOCC1CN(S(C)(=O)=O)Cc2nn(C)cc21` (configuration not stated), -3.61%; as for `O=C(OCc1ccccc1)N1CC[C@H]2CC(CO)O[C@@H]2C1` (some centres not stated), 4.61%. With `Cc1ccc(N2CCCC3(CCN(C(=O)c4sccc4C)C3)C2)nn1` (configuration not stated), the cytotoxicity at 70.5 h is -4.03%. With `CNC(=O)[C@H]1C[C@@H]2CN(C(=O)c3ccncc3F)C[C@@H]2N1C`, the cytotoxicity at 70.5 h is -16.9%. The same measure for `Cc1ccc(N2CCCC3(CCN(C(=O)NC4CCCC4)C3)C2)nn1` (configuration not stated): -12.8%.

For the molecule `Cc1ccc(C(=O)N2CCC3(CCCN(c4ccc(C)nn4)C3)C2)cn1` (configuration not stated), the cytotoxicity at 70.5 h is -10.8%. Consider `COCC1CN(C(=O)CC2=CCCCC2)Cc2nnn(CC3CC3)c21` (configuration not stated), for which the cytotoxicity at 70.5 h is -12%.

Regarding `Cc1nc(N2CCOCC2)nc2c1CCN(C(=O)C1(C#N)CC1)CC2`, the cytotoxicity at 70.5 h was -9.06%. As for `O=C([C@@H]1CCO[C@@H]2CCN(CC3CCOCC3)C[C@H]21)N1CCCC1`, the figure is -12.7%; as for `CC(C)NC(=O)N1CCC2(CC1)CC[C@@]1(C(=O)N(C)C)CN(C)C[C@@H]21`, -11.9%. As for `Cc1nc([C@H]2C[C@@H]3CCN(Cc4ccc5c(c4)OCO5)C[C@H]3O2)no1`, the figure is -12.3%. In the case of `Cc1csc(CN2C[C@@H]3CN(S(C)(=O)=O)CCO[C@@H]3C2)n1`, the cytotoxicity at 70.5 h turned out to be 5.33%. As for `Cn1cccc1C(=O)N1C[C@H]2CN(CC3CC3)C(=O)[C@H]2C1`, the figure is 6.81%; as for `COCCn1c2c(ccc1=O)CC(NC(=O)c1cscn1)CC2` (configuration not stated), -4.76%. As for `O=C1NCCO[C@H]2CN(C(=O)CC3Cc4ccccc4C3)CC[C@@H]12`, the figure is -9.87%. As for `CC(C)CN1C[C@@H]2CN(C(=O)c3cccn3C)C[C@@H]2C1=O`, the figure is -7.2%; as for `CC(C)CN1C(=O)CO[C@@H]2CNC[C@H]21`, -10.3%.

Consider `COc1cc(N2CCCC3(CCN(c4cncnc4)C3=O)C2)ncn1` (configuration not stated), for which the cytotoxicity at 70.5 h is -7.92%. The same measure for `CCS(=O)(=O)NCC1Cn2nnc(-c3cccc(C)c3)c2CO1` (configuration not stated): -5.93%.

With `CC(=O)N1CCCC2(CCN(c3nncs3)C2)C1` (configuration not stated), the cytotoxicity at 70.5 h is -4.07%. In the case of `Cc1nc(CN(C)C(=O)C2CCC(=O)N(CCN(C)C)C2)cs1` (configuration not stated), the cytotoxicity at 70.5 h was determined as 11.1%. The same measure for `O=C(NCc1ccco1)N1CCC(n2cc(-c3ccccn3)nn2)CC1`: 0.624%. The same measure for `Cc1nc(CN2CCCCC2CCc2ccc(O)cc2)co1` (configuration not stated): -6.18%; for `CN(Cc1cn[nH]c1-c1ccc(F)cc1)C(=O)CCC1CC1`: -13.8%.

Regarding `O=C(O)C(c1cccc2c1OCC2)N1CCC(N2CCCC2)CC1` (configuration not stated), the cytotoxicity at 70.5 h is -0.16%.

On to `CC(C)c1cc(C2CCN(C(=O)Cn3nc4ccccc4n3)CC2)[nH]n1`, for which the cytotoxicity at 70.5 h is -5.96%. For the molecule `COc1ccc([C@@H]2CN(c3cc(OC)ncn3)C[C@H]2N(C)C)cc1`, the cytotoxicity at 70.5 h came out at 22.1%. As to `Cc1cc(C)nc(CN(C)c2nc(C3CCCC3)nc3c2cnn3C)c1`, the cytotoxicity at 70.5 h is -9.74%. `COCCCC1(C(=O)O)CCCN(C(=O)c2ccc(Cl)cc2F)C1` (configuration not stated): the cytotoxicity at 70.5 h was -10.9%.

Take `Cc1cc(N(C)CCC(O)c2ccccc2)n2nccc2n1` (configuration not stated): the cytotoxicity at 70.5 h is -3.24%. As for `Cc1cnc(C(=O)N2CCCCC2c2ccc(CN(C)C)cc2)cn1` (configuration not stated), the figure is 8.8%. For the molecule `Cc1nc2ccccn2c1CN1C[C@@H](CN(C)C)[C@@H](CO)C1`, the cytotoxicity at 70.5 h is -6.27%. As for `NC(=O)Cn1ccnc1C1CCCN(Cc2cccc(Cl)c2F)C1` (configuration not stated), the cytotoxicity at 70.5 h is -11.7%. The same measure for `CCn1nc(CC(C)C)cc1C(=O)NCc1c(C)cc(C)nc1OC`: 2.04%. For the molecule `O=c1[nH]c(NCc2cccc(OC(F)F)c2)nc2c1CCNC2`, the cytotoxicity at 70.5 h was -23.8%. Consider `COCCc1noc(CN2CC(C)(c3ccccc3)CCC2=O)n1` (configuration not stated), for which the cytotoxicity at 70.5 h was -9.17%. Take `CC(C)Oc1cccc(-c2nc3c([nH]2)CCCNC3=O)c1`: the cytotoxicity at 70.5 h stood at 5.17%. As for `Cc1nccc(N2C[C@@H](CN3CCCC3)[C@@H](CO)C2)n1`, the figure is -6.17%; as for `O=C(C1CC2(CCNCC2)CN1)N1CCN(c2cccc(Cl)c2Cl)CC1` (configuration not stated), -1.58%.

Take `Cc1nc(N2CC[C@@H](c3ccc4ccccc4c3)[C@H](O)C2)no1`: the cytotoxicity at 70.5 h turned out to be 3.2%. As for `CN(C)Cc1csc(-c2nccn2Cc2ccc(C(=O)O)cc2)c1`, the figure is 19.3%; as for `CC(=O)N[C@@H]1CN(Cc2ccccc2C#N)C[C@H]1c1ccc(C)cc1`, -21.6%.

On to `Cc1nonc1OCCNC(=O)COc1ccc(F)cc1F`, for which the cytotoxicity at 70.5 h was -12.2%. Take `Cc1nc(CN(C)Cc2nc(-c3ccncc3)no2)co1`: the cytotoxicity at 70.5 h is 3.9%.

As for `CCN(CC)C(=O)C1CCC(=O)N(CCc2cccc(F)c2)C1` (configuration not stated), the cytotoxicity at 70.5 h amounted to 19.7%.

On to `COCCN1CCN(C(=O)c2ccc(C)cc2OC)[C@H]2CS(=O)(=O)C[C@H]21`, for which the cytotoxicity at 70.5 h was -11.7%. The same measure for `CC(C)CN1C(=O)CC[C@H]2CN(C(=O)Cn3ccc(=O)cc3)CC[C@H]21`: 21.4%; for `CC(c1cn2ccsc2n1)N1Cc2ncccc2C1=O` (configuration not stated): -4.52%. The same measure for `CC1(C)CCN(S(=O)(=O)N2CCCC(c3cccc(C(=O)O)c3)C2)CC1` (configuration not stated): -10.5%; for `Cc1nc(C(=O)N2CCN(S(C)(=O)=O)[C@@H]3CS(=O)(=O)C[C@@H]32)cs1`: 1.07%; for `c1ccc(CNc2ncc(CN3CCCN4CCC[C@H]4C3)cn2)cc1`: -3.55%. As for `Cc1nc(CN(Cc2ccncc2)C2CCN(C)CC2)cs1`, the figure is 8.24%; as for `Cn1nnnc1SCCNC(=O)c1cccc2ccnn12`, 3.9%. Consider `CN1C(=O)[C@H]2CC[C@@H]1CN(C(=O)Nc1cccc3ccccc13)C2`, for which the cytotoxicity at 70.5 h is -6.28%. As for `Cc1noc(-c2ccc(Oc3cccc(CN4CCCC4)c3F)nc2)n1`, the cytotoxicity at 70.5 h is 16.7%.

Take `COCCN1CCc2c(CNC(=O)c3nccn3C)cncc2C1`: the cytotoxicity at 70.5 h was 3.83%.

For the molecule `CCC(=O)N1CCN(CCn2cccn2)c2ncccc2C1`, the cytotoxicity at 70.5 h turned out to be 12.9%. The same measure for `O=C(c1ccncc1)N1CCC2(CCCN(c3ncc(F)cn3)C2)C1` (configuration not stated): -2.34%; for `NC(=O)C1Cn2ccnc2C2(CCN(C(=O)NC3CCCC3)CC2)O1` (configuration not stated): -8.91%. The same measure for `O=C(COC[C@@]12CCC[C@@H]1CN(C1CCC1)C2)N1CCCC1`: -9.27%.

For the molecule `CC(C)Nc1nc(-c2ccccc2)nc2c1CCN(C(=O)C1CC1)CC2`, the cytotoxicity at 70.5 h was -9.57%. For the molecule `CN(C)C(=O)COC[C@]12COC[C@H]1CN(C1CCCC1)C2`, the cytotoxicity at 70.5 h was -8.08%.

With `Cc1oncc1C(=O)N[C@@H]1CN(Cc2ccco2)C[C@@H]2CCCO[C@@H]21`, the cytotoxicity at 70.5 h is -3.33%.

For the molecule `CC(C)CC(=O)N1CCC2(CC1)OC(C(N)=O)Cn1ccnc12` (configuration not stated), the cytotoxicity at 70.5 h is -8.87%. The same measure for `CN1CCC2(CC1)CC(NC(=O)c1csnn1)c1ccccc1O2` (configuration not stated): -0.343%. The same measure for `CC(C)N1[C@H](Cn2cncn2)C[C@@H]2CN(Cc3cccs3)CC[C@@H]21`: -0.112%; for `CN(C)C1CC2(CCN(C(=O)C3(C#N)CC3)CC2)c2ccccc21` (configuration not stated): -10.7%; for `CCN1C[C@H]2C3(CCN(C(=O)NC(C)C)CC3)CC[C@@]2(C(=O)NC)C1`: -11.3%. The same measure for `CCN1C[C@H]2C3(CCN(C(C)=O)CC3)CC[C@@]2(C(=O)N(C)C)C1`: -8.84%. Turning to `O=C(c1ccncc1F)N1Cc2nc(COCC3CC3)oc2C1`, the cytotoxicity at 70.5 h was -15.8%.

For `CO[C@@H]1CC[C@H]2[C@H]1OCCN2CCOCc1ccccc1`, the cytotoxicity at 70.5 h was -12.3%. The same measure for `CO[C@H]1CC[C@H]2[C@H]1OCCN2CCOCc1ccccc1`: -11.7%; for `CC(C)N1[C@H](Cn2cncn2)C[C@@H]2CN(Cc3ccsc3)CC[C@@H]21`: -2.74%. The same measure for `O=C(NC1CC1)N1CCC2(CC1)CC(N1CCOCC1)c1ccccc12` (configuration not stated): -10.8%; for `Cc1cccc(CN2CCC3(CCCN(CC(=O)N(C)C)C3)C2)n1` (configuration not stated): 7.75%. As for `Cc1ccc(N2CCC3(CC2)CC(OCC(C)C)C3)nn1`, the figure is -8.68%; as for `COCc1n[nH]c2c1CN(Cc1ccccn1)C2`, -9.17%; as for `Cc1cnc(N2CCC3(CC2)COCCN(C(C)C)C3)nc1`, -8.08%. Take `O=C(NCc1cnc2n1CCN(Cc1cccs1)C2)c1ccno1`: the cytotoxicity at 70.5 h stood at 18.9%. The same measure for `Cc1ccc(CN2CCC[C@]3(C(=O)O)CN(CC4CC4)C[C@@H]3C2)s1`: -6.54%; for `CN1CCO[C@@H]2CN(C(=O)c3ccc4ncccc4c3)CC[C@@H]2C1`: -8.09%; for `CCOCCN1CCO[C@H]2[C@H](OCc3ccccn3)CC[C@@H]21`: -11%. As for `COCCN1CCC2(CC1)CC(N1CCOCC1)c1ccc(C)cc12` (configuration not stated), the figure is -8.53%; as for `O=C(Nc1cccnc1)[C@H]1CN(Cc2ccccn2)C[C@H]2OCC[C@@H]12`, -7.69%. In the case of `c1cncc(OCc2n[nH]c3c2CN(Cc2cccs2)C3)c1`, the cytotoxicity at 70.5 h was -6.87%.

Source of the values: ChEMBL document CHEMBL3507680, “University of Dundee, Gates Library screen for HepG2 cell viability”.
